Columns and labels:
[1] = test system: CTP-1; experiment: Enzymes involved in β-oxidation after exogenous palmitoleic acid; type: cell-based, bovine; conditions: addition of exogenous palmitoleic acid
Source text: As such, C16:1n7-palmitoleate, derivatives thereof, pharmaceutically acceptable salts thereof, or a combination thereof, are useful in methods for reducing adipocyte hypertrophy and excess adipose tissue deposition.

[2] = test system: Acyl-CoA dehydrogenase, long chain (ACADL); experiment: Expression of fatty acid oxidation genes in bovine adipocytes; type: cell-based; conditions: normalized to EIF3K and UXT; P≦0.07
Source text: (§1) The effect of palmitoleic acid supplementation on fatty acid oxidation in bovine adipocytes (see Kadegowda et al., 2011a) was examined by measuring the expression levels of Acyl-Coenzyme A oxidase 2 (ACOX2), Acyl-CoA dehydrogenase, long chain (ACADL), Phytanoyl-CoA 2-hydroxylase (PHYH), Caveolini (CAV1) and Adipose differentiation-related protein (ADEP). The geometric mean of Eukaryotic translation initiation factor 3, subunit k (EIF3K) and Ubiquitously expressed transcript (UXT) was used for normalization.

[3] = test system: Phytanoyl-CoA 2-hydroxylase (PHYH); experiment: as above; type: cell-based; conditions: normalized to EIF3K and UXT
Source text: as §1

[4] = test system: bovine adipocytes; experiment: Rate of lipogenesis with [1-13C]acetate in bovine adipocytes; type: cell-based; conditions: 2.5 mM [1-13C]acetate on day 6; compared to controls
Source text: (§2) The desaturation ratio of C18:1 cis-9/C18:0 decreased (P<0.05) in response to increasing concentrations of palmitoleic acid, which was consistent with the observed decrease in SCD-1 mRNA expression.

[5] = test system: bovine adipocytes; experiment: Fatty acid levels and desaturation (13C18:0, GLC-MS) in fatty acid supplemented bovine adipocytes; type: cell-based; conditions: P<0.05
Experimental: In addition, cells were incubated with ^13C2 and ^13C18:0 on day 6 to estimate lipogenic and desaturation rates using GLC-MS.

[6] = test system: bovine adipocytes; experiment: Fatty acid composition of bovine adipocyte cultures with exogenous palmitoleic acid (GLC); type: cell-based; conditions: P<0.05
Source text: (§3) Bovine adipocyte cultures were used to determine if addition of exogenous palmitoleic acid (C16:1n7) altered lipogenesis in vitro (Burns et al., 2012a). Adipocytes were harvested from the bovine cultures on day 6 and day 12 and analyzed using GLC and qPCR. […] In contrast, increasing concentrations of palmitoleic acid led to a decrease in palmitic acid (C16:0), stearic acid (C18:0), and oleic acid (C18:1) levels (P<0.05). FIG. 2 illustrates de novo lipogenesis and β-oxidation in an adipocyte after exogenous palmitoleic acid addition.
as §2

[7] = Infusion of 13C16:1n7 in lambs, uptake and utilization; type: in vivo; conditions: 5 mg/kg level, intravenous infusion
Experimental: This level of palmitoleic acid supplementation was selected based on previous experiments where lambs were infused with varying levels (0, 2, or 5 mg/kg) of ^13C16:1n7 to assess uptake and utilization in adipose tissues. […] This 5 mg/kg level is based on intravenous infusion levels and thus is adjusted for estimated ruminal bypass and intestinal absorption rates for dietary monounsaturated fatty acids for this oral feeding study.

[8] = test system: SCD-1; experiment: qPCR mRNA expression in bovine adipocyte cultures; type: cell-based; conditions: compared to untreated control cells; P<0.05
Source text: as §3, §2

[9] = test system: FASN; experiment: qPCR mRNA expression in bovine adipocyte cultures; type: cell-based; conditions: compared to untreated control cells; P<0.05
Source text: as §3, §2

[10] = test system: ELOVL6; experiment: qPCR mRNA expression in bovine adipocyte cultures; type: cell-based; conditions: compared to untreated control cells; P<0.05
Source text: as §3, §2

[11] = increasing concentrations of palmitoleic acid (50, 150 and 300 μM), day 6 and day 12
[12] = increasing concentrations of palmitoleic acid

## CCCCCC/C=C\CCCCCCCC(=O)O [palmitoleic acid]
[1]
  CTP-1 (enzyme involved in β-oxidation) regulation: upregulates
[2]
  increase in ACADL expression: 2.36 fold
[3]
  increase in PHYH expression: 95.5 fold
[4]
  rate of lipogenesis: lower rate of lipogenesis
[5]; after 12 h of 13C18:0 incubation, compared with all other treatments
  13C18:1 cis-9 levels: lower
[5]; compared with all other treatments
  C18:1 cis-9/C18:0 ratio: lower
[5]; compared with control cells
  C16: levels in supplemented cells: elevated
  C18:1 cis-11 levels in supplemented cells: elevated
  C20:1 cis-13 levels in supplemented cells: elevated
[6]; in response to increasing concentrations of palmitoleic acid
  desaturation ratio of C18:1 cis-9/C18:0: decreased
[6]; [11]
  cis-11 vaccenic acid (C18:1c11) levels in adipocytes: linear increase
  cis-13 eicosenoic acid (C20:1c13) levels in adipocytes: linear increase
  total fatty acid levels in adipocytes: linear increase
[6]; increasing concentrations of palmitoleic acid (50, 150 and 300 μM), harvested day 6 and day 12
  Palmitoleic acid levels in adipocytes: linear increase
[6]; [12]
  oleic acid (C18:1) levels in adipocytes: decrease
  palmitic acid (C16:0) levels in adipocytes: decrease
  stearic acid (C18:0) levels in adipocytes: decrease
[7]; compared to control
  blood glucose levels: altered
[7]; lambs infused with 0, 2, or 5 mg/kg
  concentrations of 13C16:1n7 in serum: greatest concentrations
[8]
  SCD-1 mRNA expression levels: reduction
[9]
  FASN mRNA expression levels: reduction
[10]
  ELOVL6 mRNA expression levels: reduction
